The results in this text go back to patent US20220370545A1, “INTEGRIN RECEPTOR ALPHA V BETA 3 AND ITS LIGAND INVOLVED IN CHRONIC ITCH” (North Carolina State University, priority 2019, published 2022).

For data set [1], the system named is periostin-induced itch behavior in mice. In words: Scratching behavior after intradermal periostin injection in the dorsal neck of mice. It counts as in vivo, mouse. The procedure:
All behavioral experiments were conducted during the light cycle at ambient temperature (23° C.). Behavioral assessment of scratching behavior was conducted as described previously (Mishra et al., 2011). Briefly, mice were injected intradermal into the nape of the neck with periostin (R&D), histamine, and chloroquine (all Millipore-Sigma) as previously described (Shimada and LaMotte, 2008). Compounds were diluted in PBS and the same was used as a vehicle. […] Scratching behavior was recorded for 30 minutes and data was presented in bouts per 30 minutes for mice. One bout was defined as scratching behavior toward the injection site between lifting the hind leg from the ground and either putting it back on the ground or guarding the paw with the mouth. Injections of periostin, and capsaicin in the mouse cheek itch/pain model were performed as described previously (Shimada and LaMotte, 2008). For eye wipes assay, periostin and capsaicin were dropped on mouse cornea and counted wipes for 1-minute. Injection volume was always 20 μl in mice. For dog's study, periostin (25 μg/25 μl) was injected in the dorsal neck (s.c.) and behavior was recorded and quantified for 30 minutes as “duration of pruritus manifestation” (DPM), as described earlier (Paps et al., 2016). For non-human primate (NHP) studies, periostin (25 μg/100 μl) was injected in the NHP thigh (s.c.) on the lateral side of the upper part of the hind limb; the skin area over the vastus lateralis muscle. The lateral side of the upper part of the hind limb was chosen as an injection site because this location is safe and easy to access when the animal is in a chair. The number of scratches is easily countable in NHP. When different raters separately scored a single tape, the ratings indicated high interrater reliability (coefficient of correlation, r>0.95). This method of itch readout in NHP has been used and accepted (Ko and Naughton, 2000). The behavior was recorded for 30 minutes duration and number of scratches quantified. In NHP, a scratch is defined as one brief (<1 s) episode of scraping contact of the forepaw or hind paw on the skin surface

Data set [2] relates to Integrin αvβ3 on DRG Sensory Neurons. In words: Fura-2 calcium imaging of periostin-induced calcium response in cultured DRG sensory neurons. It is filed as cell-based, mouse. Conditions: periostin 16 ng/μl. The procedure: DRGs were isolated from mice and dissociated in 1 mL of media containing 2.5 U/mL of dispase (Fisher Scientific, Hampton, New Hampshire, United States of America) and 2.5 mg/mL of collagenase (Fisher Scientific, Hampton, New Hampshire, United States of America). After dissociation, the cells were washed with complete media (DMEM (HiMedia Laboratories, Mumbai, India) with 10% FBS (Atlanta Biologicals, Flowery Branch, Georgia, United States of America) and 1% PenStrep (VWR International, Radnor, Pa., United States of America)) and pelleted at 1000 rpm for 15 minutes. Approximately 30 μL of the cell suspension was plated on 18 mm round glass slides with a coating of laminin (Sigma Aldrich, St. Louis, Miss., United States of America) and poly-L-lysine (Sigma Aldrich, St. Louis, Miss., United States of America) and incubated for 1.5 hours. Afterwards, 1 mL of complete media was added, and the cells were incubated overnight. All incubation steps were done at 37° C. with 5% CO2.
Before imaging, cells were incubated in 350 μL of complete media containing 1 μM Fura-2 AM (Enzo Life Sciences, Farmingdale, New York, United States of America) for 30 min at 37° C. with 5% CO2. During imaging, the cells were perfused with a buffer containing the following: 135 mM sodium chloride, 3.2 mM potassium chloride, 2.5 mM magnesium chloride, 2.8 mM calcium chloride, 667 μM monobasic sodium phosphate, 14.2 mM sodium bicarbonate, and 10.9 mM D-glucose (all from VWR International, Radnor, Pennsylvania, United States of America) with a pH between 7.00 and 7.40. The buffer and the holding plate were kept at 37° C. while imaging. Imaging data was collected on a TE200 inverted microscope using NIS Elements software (Nikon, Melville, New York, United States of America). Cells were exposed to 340 nm and 380 nm wavelengths for 100 ms and the A340/A380 ratio was calculated. Traces were analyzed using Excel and responses greater than 10% of the baseline were counted. Each data point in the scatter plots represented one coverslip.
Calcium Imaging: Calcium imaging will be performed on the DRG neurons as previously described (Pitake et al., 2018). Briefly, DRG neurons will be incubated for longer than 30 min in DMEM containing 1 μM of a fluorescent indicator Fura-2 AM (Enzo Life Sciences, Inc., Farmingdale, N.Y., United States of America). The neurons will be perfused in a standard bath solution containing 140 mM NaCl, 5 mM KCl, 2 mM MgCl2, 2 mM CaCl2, 10 mM Hepes and 10 mM D-glucose at pH 7.4 adjusted with NaOH. A calcium-free bath solution will be prepared by omitting 2 mM CaCl2 from the standard bath solution […] adding 5 mM EGTA. Fura-2 fluorescence excited at 340 and 380 nm and emission will be monitored at 510 nm with a digital CCD camera (Andor Clara DR-4152, Andor Technology Ltd, Belfast, United Kingdom). Data will be obtained by every 100 ms using an imaging software (NIS-Elements AR 4.13.04, Nikon Corporation, Tokyo, Japan) and analyzed by Microsoft Excel (Microsoft Corporation, Redmond, Wash., United States of America). Values of calcium responses will be normalized by dividing measured values (F) with average values of initial 5 frames (F0) of each cell and described as F/F0. In this study, changes in each response to an application with F/F0>0.1 will be regarded as positive. Cells not responding to 100 mM KCl, which is applied at the end of each experiment, will be regarded as non-neuronal cells and excluded from analysis.
Periostin (10 ug/ml) will be used to evoke calcium influx. This response has been optimized. The peptide inhibitors will be tested on DRG neurons to measure calcium influx in response to periostin. Data on calcium imaging will be presented by presenting each mouse±SEM. The IC50 value of the inhibitor will also be determined
Additional inhibitors were studied using the calcium imaging method described in Example 3. Briefly, the Fura2-AM calcium imaging method was performed on live dorsal root ganglia (DRG) neurons (ex vivo). […]

On to `CC(C)[C@H]1C(=O)N[C@@H](CCCN=C(N)N)C(=O)NCC(=O)N[C@@H](CC(=O)O)C(=O)N[C@H](Cc2ccccc2)C(=O)N1C` [cilengitide, cyclo RGDf-n(Me)V], for which the periostin-induced itch behavior entry in data set [1] (cilengitide 100 nM i.p. 10 minutes prior to periostin i.d. (5 μg/20 μl)) was “significantly reduced”; in data set [1] (cilengitide 100 nM i.v. 10 minutes prior to periostin i.d. (5 μg/20 μl)), “significantly reduced”; in data set [1] (periostin and cilengitide mixed together and injected s.c.), “significantly reduced”. Moreover, the “itch behavior after cilengitide alone” value in data set [1] (cilengitide injected alone, no periostin) is given as “did not induce itch behavior”. In data set [1] (intravenous pre-injection versus i.p. and mix), the “comparison of inhibitory effect among routes of injection” value is reported as “strongest inhibitory effect”. Besides, the periostin-dependent calcium response entry in data set [2] (perfusion with 100 nM cilengitide) was “significantly reduced”.

B1: periostin: fasciclin extracellular matrix protein, endogenous ligand of integrin αvβ3; mouse recombinant used (protein)
chain: NSYYDKVLAHSRIRGRDQGPNVCALQQILGTKKKYFSSCKNWYQGAICGKKTTVLYECCPGYMRMEGMKGCPAVMPIDHVYGTLGIVGATTTQHYSDVSKLREEIEGKGSYTYFAPSNEAWENLDSDIRRGLENNVNVELLNALHSHMVNKRMLTKDLKHGMVIPSMYNNLGLFINHYPNGVVTVNCARVIHGNQIATNGVVHVIDRVLTQIGTSIQDFLEAEDDLSSFRAAAITSDLLESLGRDGHFTLFAPTNEAFEKLPRGVLERIMGDKVASEALMKYHILNTLQCSEAITGGAVFETMEGNTIEIGCEGDSISINGIKMVNKKDIVTKNGVIHLIDEVLIPDSAKQVIELAGKQQTTFTDLVAQLGLASSLKPDGEYTLLAPVNNAFSDDTLSMDQRLLKLILQNHILKVKVGLSDLYNGQILETIGGKQLRVFVYRTAICIENSCMVRGSKQGRNGAIHIFREIIQPAEKSLHDKLRQDKRFSIFLSLLEAADLKDLLTQPGDWTLFAPTNDAFKGMTSEERELLIGDKNALQNIILYHLTPGVYIGKGFEPGVTNILKTTQGSKIYLKGVNETLLVNELKSKESDIMTTNGVIHVVDKLLYPADIPVGNDQLLELLNKLIKYIQIKFVRGSTFKEIPMTVYRPAMTKIQIEGDPDFRLIKEGETVTEVIHGEPVIKKYTKIIDGVPVEITEKQTREERIITGPEIKYTRISTGGGETGETLQKFLQKEVSKVTKFIEGGDGHLFEDEEIKRLLQGDTPAKKIPANKRVQGPRRRSREGRSQ
With B1, the “scratching behavior after periostin injection” value in data set [1] (single i.d. injection 5 μg/20 μl in dorsal neck, within 15 minutes) is given as “robust scratching behavior”. Also, the “DRG sensory neurons with periostin-dependent changes in intracellular calcium” value in data set [2] is “about 10±2%”.
